Data published in patent publication US20120121540A1 (priority 2007, published 2012).

Assay: HCV replicon assay (luciferase reporter, ET cell line)
Format: cell-based
Conditions: Hepatitis C virus, HCV replicon luciferase activity in ET cells
Method: A cell line, ET (Huh-lucubineo-ET) is used for screening of compounds for inhibiting HCV RNA dependent RNA polymerase. The ET cell line is stably transfected with RNA transcripts harboring a I389 luc-ubi-neo/NS3-3′/ET; replicon with firefly luciferase-ubiquitin-neomycin phosphotransferase fusion protein and EMCV-IRES driven NS3-5B polyprotein containing the cell culture adaptive mutations (E1202G; T1280I; K1846T) (Krieger at al, 2001 and unpublished). The ET cells are grown in DMEM (Dulbeco's Modified Eagle's Medium), supplemented with 10% fetal calf serum, 2 mM Glutamine, Penicillin (100 IU/mL)/Streptomycin (100 μg/mL), 1× nonessential amino acids, and 250 μg/mL G418 (“Geneticin”). They are all available through Life Technologies (Bethesda, Md.). The cells are plated at 0.5−1.0×10^4 cells/well in the 96 well plates and incubated for 24 hrs before adding test compound. The compounds are added to the cells to achieve a final concentration of 0.1 nM to 50 μm and a final DMSO (dimethylsulfoxide) concentration of 0.5%. Luciferase activity is measured 48-72 hours later by adding a lysis buffer and the substrate (Catalog number Glo-lysis buffer E2661 and Bright-Glo luciferase system E2620 Promega, Madison, Wis.). Cells should not be too confluent during the assay. Percent inhibition of replication data is plotted relative to no compound control. Under the same condition, cytotoxicity of the compounds are determined using cell proliferation reagent, WST-1 (Roche, Germany). The compounds showing antiviral activities, but no significant cytotoxicities are chosen to determine EC50 and TC50. For these determinations, a 10 point, 2-fold serial dilution for each compound was used, which spans a concentration range of 1000 fold. EC50 and similarly TC50 values were calculated by fitting % inhibition at each concentration to the following equation:
% inhibition=100%/[(EC50/[I])^b+1]
where b is Hill's coefficient.
% inhibition values at a specific concentration, […] for example, can also be derived from the equation above.
`CCn1c(C(=O)N2CCC(c3ccc(F)cc3)C2)nc2c(C(F)(F)F)cc(-c3ccoc3)cc21` (stereo not shown) [Compound 352, (1-Ethyl-6-furan-3-yl-4-trifluoromethyl-1H-benzoimidazol-2-yl)-[3-(4-fluoro-phenyl)-pyrrolidin-1-yl]-methanone] gave an inhibition at 10 µM of 49.8%. In the case of `O=C(NCc1cccs1)c1nc2c(C(F)(F)F)cc(-c3ccccc3F)cn2c1Cl` [Compound 197, 3-Chloro-6-(2-fluoro-phenyl)-8-trifluoromethyl-imidazo[1,2-a]pyridine-2-carboxylic acid (thiophen-2-ylmethyl)-amide], the inhibition at 10 µM is reported as 90.6%. With `Cn1cncc1CNC(=O)c1nc2c(C(F)(F)F)cc(-c3ccco3)cn2c1Cl` [Compound 327, 3-Chloro-6-furan-2-yl-8-trifluoromethyl-imidazo[1,2-a]pyridine-2-carboxylic Acid (3-methyl-3H-imidazol-4-ylmethyl)-amide] the inhibition at 10 µM was 95.4%. `O=C(NCC1CCCO1)c1nc2c(C(F)(F)F)cc(-c3ccco3)cn2c1Cl` (stereo not shown) [Compound 184, 3-Chloro-6-furan-2-yl-8-trifluoromethyl-imidazo[1,2-a]pyridine-2-carboxylic acid (tetrahydro-furan-2-ylmethyl)-amide] showed an inhibition at 10 µM of 84.4%. Compound `COc1cccc(C2CCN(C(=O)c3nc4c(C(F)(F)F)cc(-c5ccoc5)cn4c3Cl)C2)c1` (stereo not shown) [Compound 451, (3-Chloro-6-furan-3-yl-8-trifluoromethyl-imidaz [1,2-a]pyridin-2-yl)-[3-(3-methoxy-phenyl)-pyrrolidin-1-yl]-methanone] has an inhibition at 10 µM of 73.5%. Work on `Nc1cccc(C2CCN(C(=O)c3nc4c(C(F)(F)F)cc(-c5ccoc5)cn4c3Cl)C2)c1` (stereo not shown) [Compound 462, [3-(3-Amino-phenyl)-pyrrolidin-1-yl]-(3-chloro-6-furan-3-yl-8-trifluoromethyl-imidaz [1,2-a]pyridin-2-yl)-methanone] yielded an inhibition at 10 µM of 86.5%. Work on `O=C(NCc1cccs1)c1[nH]c2c(C(F)(F)F)cc(-c3ccccc3)cc2c1Cl` [Compound 104, 3-Chloro-5-phenyl-7-trifluoromethyl-1H-indole-2-carboxylic Acid (thiophen-2-ylmethyl)-amide] yielded an inhibition at 10 µM of 44%. `O=C(Nc1ccccc1)Nc1nc2c(C(F)(F)F)cc(-c3ccco3)cn2c1Cl` [Compound 211, 1-(3-Chloro-6-furan-2-yl-8-trifluoromethyl-imidazo[1,2-a]pyridin-2-yl)-3-phenyl-urea] gave an inhibition at 10 µM of 51.8%. With `O=C(NCc1cccc(F)c1)NCc1cn2cc(-c3ccoc3)cc(C(F)(F)F)c2n1` [Compound 398, 1-(3-Fluoro-benzyl)-3-(6-furan-3-yl-8-trifluoromethyl-imidazo[1,2-a]pyridine-2-ylmethyl)-urea] the inhibition at 10 µM was 86.9%. Compound `CCCCCc1nc(-c2cc(-c3ccoc3)cn3c(Cl)c(C(=O)NCc4cccs4)nc23)no1` [Compound 375, 3-Chloro-6-furan-3-yl-8-(5-pentyl-[1,2,4]oxadiazol-3-yl)-imidazo[1,2-a]pyridine-2-carboxylic Acid (thiophen-2-ylmethyl)-amide] has an inhibition at 10 µM of 35.4%. `O=C(NCc1cccs1)c1nn2c(I)cc(-c3ccccc3)cc2c1I` [Compound 119, 3,7-diiodo-5-phenyl-pyrazolo[1,5-a]pyridine-2-carboxylic Acid (thiophen-2-ylmethyl)-amide] showed an inhibition at 10 µM of 71.5%. Compound `O=C(c1nc2c(C(F)(F)F)cc(-c3ccoc3)cn2c1Cl)N1CCC(c2ccccc2F)CC1` [Compound 275, (3-chloro-6-furan-3-yl-8-trifluoromethyl-imidazo[1,2-a]pyridine-2-yl)-[4-(2-fluoro-phenyl)-piperidin-1-yl]-methanone] has an inhibition at 10 µM of 97.8%. `O=C(c1nc2c(C(F)(F)F)cc(-c3cn[nH]c3)cn2c1Cl)N1CCC(c2cccc(F)c2)C1` (stereo not shown) [Compound 258, [3-Chloro-6-(1H-pyrazol-4-yl)-8-trifluoromethyl-imidazo[1,2-a]pyridin-2-yl]-[3-(3-fluoro-phenyl)-pyrrolidin-1-yl]-methanone] showed an inhibition at 10 µM of 91%. For `O=C(c1nc2c(C(F)(F)F)cc(-c3cn[nH]c3)cn2c1Cl)N1CC[C@@H](c2ccccc2)C1` [Compound 465, [3-Chloro-6-(1H-pyrazol-4-yl)-8-trifluoromethyl-imidazo[1,2-a]pyridin-2-yl]-(3-(S)-phenyl-pyrrolidin-1-yl)-methanone], the inhibition at 10 µM was 97.9%. For `O=C(c1nc2c(C(F)(F)F)cc(-c3ccoc3)cn2c1Cl)N1CCN(c2ccc(F)cc2F)CC1` [Compound 596, (3-Chloro-6-furan-3-yl-8-trifluoromethyl-imidazo[1,2-a]pyridin-2-yl)-[4-(2,4-difluoro-phenyl)-piperazin-1-yl]-methanone], the inhibition at 10 µM was 75.6%. With `CC1(C)CCCN1C(=O)c1nc2c(C(F)(F)F)cc(-c3ccoc3)cn2c1Cl` [Compound 330, (3-Chloro-6-furan-3-yl-8-trifluoromethyl-imidazo[1,2-a]pyridin-2-yl)-(2,2-dimethyl-pyrrolidin-1-yl)-methanone] the inhibition at 10 µM was 34.4%. `O=C(c1nc2c(C(F)(F)F)cc(-c3ccoc3)cn2c1Cl)N1CCC(c2nccs2)CC1` [Compound 556, (3-Chloro-6-furan-3-yl-8-trifluoromethyl-imidazo[1,2-a]pyridin-2-yl)-(4-thiazol-2-yl-piperidin-1-yl)-methanone] showed an inhibition at 10 µM of 99.5%. In the case of `O=C(NCc1cccs1)c1cc2cc(-c3ccccc3)cc(C(F)(F)F)n2n1` [Compound 107, 5-Phenyl-7-trifluoromethyl-pyrazolo[1,5-a]pyridine-2-carboxylic Acid (thiophen-2-ylmethyl)-amide], the inhibition at 10 µM is reported as 82.4%. Work on `O=C(c1nc2c(C(F)(F)F)cc(-c3ccoc3)cn2c1Cl)N1CC=C(c2ccoc2)C1` [Compound 429, (3-Chloro-6-furan-3-yl-8-trifluoromethyl-imidazo[1,2-a]pyridin-2-yl)-(3-furan-3-yl-2,5-dihydro-pyrrol-1-yl)-methanone] yielded an inhibition at 10 µM of 98%. For `O=C(c1nc2c(C(F)(F)F)cc(-c3ccco3)cn2c1Cl)N1CCCC1c1ccccc1` (stereo not shown) [Compound 322, (3-Chloro-6-furan-2-yl-8-trifluoromethyl-imidazo[1,2-a]pyridin-2-yl)-(2-phenyl-pyrrolidin-1-yl)-methanone], the inhibition at 10 µM was 78.7%. With `O=C(c1nc2c(C(F)(F)F)cc(-c3cn[nH]c3)cn2c1Br)N1CCC(c2nccs2)C1` (stereo not shown) [Compound 432, [3-Bromo-6-(1H-pyrazol-4-yl)-8-trifluoromethyl-imidazo[1,2-a]pyridin-2-yl]-(3-thiazol-2-yl-pyrrolidin-1-yl)-methanone] the inhibition at 10 µM was 96.5%. Compound `CC(C)(C)OC(=O)NC1CN(C(=O)c2nc3c(C(F)(F)F)cc(-c4ccoc4)cn3c2Cl)C1` [Compound 489, [1-(3-Chloro-6-furan-3-yl-8-trifluoromethyl-imidazo[1,2-a]pyridine-2-carbonyl)-azetidin-3-yl]-carbamic Acid Tert-butyl Ester] has an inhibition at 10 µM of 33%. Work on `O=C(Cc1nc2c(C(F)(F)F)cc(-c3ccoc3)cn2c1Cl)NCc1cccs1` [Compound 603, 2-[3-Chloro-6-(furan-3-yl)-8-(trifluoromethyl)imidazo[1,2-a]pyridin-2-yl]-N-(thiophen-2-ylmethyl)acetamide] yielded an inhibition at 10 µM of 65.8%. With `O=C(c1nc2c(C(F)(F)F)cc(-c3ccoc3)cn2c1Cl)N1CC=C(c2ncccc2F)CC1` [Compound 571, (3-Chloro-6-furan-3-yl-8-trifluoromethyl-imidazo[1,2-a]pyridin-2-yl)-(3-fluoro-3′,6′-dihydro-2′H-[2,4′]bipyridinyl-1′-yl)-methanone] the inhibition at 10 µM was 97.8%. `O=C(c1nc2c(C(F)(F)F)cc(-c3ccoc3)cn2c1Cl)N1CC=C(c2ccccc2CO)CC1` [Compound 561, (3-Chloro-6-furan-3-yl-8-trifluoromethyl-imidazo[1,2-a]pyridin-2-yl)-[4-(2-hydroxymethyl-phenyl)-3,6-dihydro-2H-pyridin-1-yl)-methanone] gave an inhibition at 10 µM of 89.1%. With `CC(=O)NCc1c(-c2ccoc2)cc(C(F)(F)F)c2nc(C(=O)N3CCC(c4cccc(F)c4)C3)cn12` (stereo not shown) [Compound 637, N-{[2-{[3-(3-fluorophenyl)pyrrolidin-1-yl]carbonyl}-6-(furan-3-yl)-8-(trifluoromethyl)imidazo[1,2-a]pyridin-5-yl]methyl}acetamide] the inhibition at 10 µM was 60.8%. With `CC(C)(C)OC(=O)N[C@@H]1CCN(C(=O)c2nc3c(C(F)(F)F)cc(-c4ccoc4)cn3c2Cl)C1` [Compound 478, [1-(3-Chloro-6-furan-3-yl-8-trifluoromethyl-imidazo[1,2-a]pyridine-2-carbonyl)-pyrrolidin-3-yl]-carbamic acid tert-butyl ester] the inhibition at 10 µM was 4.9%. With `O=C(NCc1cccs1)c1nc2c(-c3ncon3)cc(-c3ccoc3)cn2c1Cl` [Compound 374, 3-Chloro-6-furan-3-yl-8-[1,2,4]oxadiazol-3-yl-imidazo[1,2-a]pyridine-2-carboxylic Acid (thiophen-2-ylmethyl)-amide] the inhibition at 10 µM was 28.6%.
